Tests used:
[1] = biological target: T1, 5-hydroxytryptamine receptor 4 (Homo sapiens, UniProt Q13639); assay: Displacement of [3H]GR113808 from human 5HT4b receptor expressed in HEK293 cell membranes
[2] = Lipophilicity, log D of the compound at pH 7.4; type: physicochemical; conditions: buffer
[3] = biological target: T1, 5-hydroxytryptamine receptor 4; assay: Antagonist activity against human 5HT4b receptor expressed in HEK293 cells assessed as reduction in 5-HT-stimulated adenylyl cyclase activity; type: functional, cell-based
[4] = biological target: Voltage-gated inwardly rectifying potassium channel KCNH2 (Homo sapiens, UniProt Q12809); assay: Inhibition of human ERG expressed in HEK293 cells assessed as reduction in channel tail current by patch clamp method; type: cell-based
[5] = Oral bioavailability in Sprague-Dawley rat at 10 mg/kg after 30 mins to 6 hrs by LC/MS/MS method; type: ADME, organism-based; conditions: in vivo
[6] = Elimination half life in Sprague-Dawley rat at 10 mg/kg, po or 1 mg/kg, iv after 30 mins to 6 hrs by LC/MS/MS method; type: ADME, organism-based; conditions: in vivo, read-out: beta t1/2
[7] = Tmax in Sprague-Dawley rat at 10 mg/kg, po or 1 mg/kg, iv after 30 mins to 6 hrs by LC/MS/MS method; type: ADME, organism-based; conditions: in vivo

T1 sequence (Q13639 whole entry): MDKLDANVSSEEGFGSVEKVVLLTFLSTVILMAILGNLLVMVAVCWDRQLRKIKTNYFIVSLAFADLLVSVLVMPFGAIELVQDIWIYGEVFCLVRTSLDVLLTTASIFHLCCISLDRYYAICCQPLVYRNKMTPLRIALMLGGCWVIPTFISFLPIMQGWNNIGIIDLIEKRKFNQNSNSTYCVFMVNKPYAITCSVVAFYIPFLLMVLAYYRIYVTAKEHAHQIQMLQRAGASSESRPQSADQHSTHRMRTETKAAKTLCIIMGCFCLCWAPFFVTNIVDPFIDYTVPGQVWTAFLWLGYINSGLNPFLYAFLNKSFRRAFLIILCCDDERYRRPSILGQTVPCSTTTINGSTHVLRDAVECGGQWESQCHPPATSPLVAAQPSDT
Chain of Voltage-gated inwardly rectifying potassium channel KCNH2 (Q12809 whole entry): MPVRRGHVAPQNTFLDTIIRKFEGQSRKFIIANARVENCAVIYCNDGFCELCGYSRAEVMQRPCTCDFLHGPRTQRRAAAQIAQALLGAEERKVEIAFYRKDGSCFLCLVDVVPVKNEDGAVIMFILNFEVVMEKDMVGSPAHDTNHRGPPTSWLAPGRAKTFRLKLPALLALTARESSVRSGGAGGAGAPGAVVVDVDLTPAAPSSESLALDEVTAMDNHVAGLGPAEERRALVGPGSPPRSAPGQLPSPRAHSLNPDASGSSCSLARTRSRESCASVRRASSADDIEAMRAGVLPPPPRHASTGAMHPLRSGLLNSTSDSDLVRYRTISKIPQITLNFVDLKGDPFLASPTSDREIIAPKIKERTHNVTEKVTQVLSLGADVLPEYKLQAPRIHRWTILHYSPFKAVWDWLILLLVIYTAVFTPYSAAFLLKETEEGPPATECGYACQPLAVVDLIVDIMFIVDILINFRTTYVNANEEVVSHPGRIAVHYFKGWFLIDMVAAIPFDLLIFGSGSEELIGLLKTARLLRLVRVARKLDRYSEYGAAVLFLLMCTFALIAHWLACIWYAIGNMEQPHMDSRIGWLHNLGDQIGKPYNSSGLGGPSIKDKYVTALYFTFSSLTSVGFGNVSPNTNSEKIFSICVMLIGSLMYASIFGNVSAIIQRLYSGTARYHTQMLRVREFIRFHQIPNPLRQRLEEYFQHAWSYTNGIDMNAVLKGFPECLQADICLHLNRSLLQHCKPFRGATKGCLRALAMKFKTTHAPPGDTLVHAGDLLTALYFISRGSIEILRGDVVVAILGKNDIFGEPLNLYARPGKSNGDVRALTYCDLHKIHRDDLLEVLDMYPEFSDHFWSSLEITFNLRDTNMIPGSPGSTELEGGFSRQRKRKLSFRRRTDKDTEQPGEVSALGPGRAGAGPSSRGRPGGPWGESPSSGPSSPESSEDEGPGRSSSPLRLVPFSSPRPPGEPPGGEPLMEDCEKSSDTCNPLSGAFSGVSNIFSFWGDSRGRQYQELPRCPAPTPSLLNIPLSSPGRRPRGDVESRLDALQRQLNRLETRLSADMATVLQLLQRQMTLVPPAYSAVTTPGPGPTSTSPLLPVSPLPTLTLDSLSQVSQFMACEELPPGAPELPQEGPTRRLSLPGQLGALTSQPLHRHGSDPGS

SMILES	Ki [1] [nM]	logD [2]	pKb [3]	IC50 [4] [µM]	bioavailability [5] [%]	half-life [6] [min]	Tmax [7] [h]
O=C(NCC1CCN(Cc2ccc(NS(=O)(=O)C3CCCCC3)cc2)CC1)c1c[nH]c2ccccc12	501	0.5					
Cn1cc(C(=O)OCC2CCN(CCNS(C)(=O)=O)CC2)c2ccccc21			10.1				
CS(=O)(=O)Nc1ccc(CN2CCC(CNC(=O)c3cccc4c3OCCO4)CC2)cc1	0.2	0.5	8.3				
CC(C)CS(=O)(=O)Nc1ccc(CN2CCC(CNC(=O)c3c4n(c5ccccc35)CCCO4)CC2)cc1	0.0501	2.2	9.7				
CCCCS(=O)(=O)Nc1ccc(CN2CCC(CNC(=O)c3cccc4c3OCCO4)CC2)cc1	0.251	1.8	8				
O=C(NCC1CCN(Cc2ccc(NS(=O)(=O)C3CCCCC3)cc2)CC1)c1cccc2c1OCCO2	1.26	2.5	7.6				
CCCCS(=O)(=O)Nc1ccc(CN2CCC(CNC(=O)c3c4n(c5ccccc35)CCCO4)CC2)cc1	1	2.2	9.7				
O=C(NCC1CCN(Cc2ccc(NS(=O)(=O)C3CCCCC3)cc2)CC1)c1c2n(c3ccccc13)CCCO2	0.2	2.7	8				
CS(=O)(=O)Nc1ccc(CN2CCC(CNC(=O)c3c4n(c5ccccc35)CCCO4)CC2)cc1	0.2	1	8.3				
O=C(OCC1CCN(CC2C3CC4C2C4C3C(=O)O)CC1)c1c2n(c3ccccc13)CCCO2 (stereo not given)	1.58	0.7	8.4				
O=C(NCC1CCN(Cc2ccc(NS(=O)(=O)Cc3ccccc3)cc2)CC1)c1c[nH]c2ccccc12	1000	1.2					
CC(C(=O)O)c1ccc(CN2CCC(COC(=O)c3c4n(c5ccccc35)CCCO4)CC2)cc1 (stereo not given)	0.316	1.1	8.8	25			
CC(C)CS(=O)(=O)Nc1ccc(CN2CCC(CNC(=O)c3cccc4c3OCCO4)CC2)cc1	0.2	1.8	8				
CCCCN1CCC(CNC(=O)c2c3n(c4ccccc24)CCCO3)CC1 [PIBOSEROD]	0.398		10.5				
O=C(OCC1CCN(CC(O)CO)CC1)c1c2n(c3ccccc13)CCCO2 (stereo not given)	0.0794	0.2	9.1	81	10.3	150	2.42
